{"source": "patent US6586425B2", "about": "“Cytoskeletal active agents for glaucoma therapy” (Wisconsin Alumni Research Foundation, priority 1996, dated 2003)", "key": {"living monkey eye [1]": {"test_system": "living monkey eye", "details": "in vivo"}, "[2]": {"test_system": "ciliary muscle-disinserted monkey eyes", "test": "Outflow facility in ciliary muscle-disinserted eyes", "format": "in vivo, cynomolgus and rhesus monkeys", "details": "H-7 300 μM, nine monkeys"}, "living monkey eye [3]": {"test_system": "living monkey eye", "test": "Pupil size and refraction after topical H-7", "format": "in vivo, cynomolgus monkeys", "details": "H-7 150 mM topical, six monkeys"}, "[4]": {"test_system": "normal living monkey eyes", "test": "Miotic and accommodative response to intramuscular pilocarpine", "format": "in vivo, monkeys"}, "ciliary muscle strip": {"test_system": "ciliary muscle strip", "test": "Pilocarpine-induced contraction of isolated ciliary muscle strip (muscle chamber)", "set-up": "species or system rhesus monkeys (Macaca mulatta)"}, "corneal endothelium": {"test_system": "corneal endothelium", "details": "cynomolgus monkey, in vivo"}}, "note": "“And” between values parts separate entries of the source, which are not always exact repeats. Equal values may be shown once. “Also recorded” adds a separate entry of the source.", "data": [{"compound": "C/C1=C\\[C@H](C)C[C@H](C)OC(=O)C[C@H](c2ccc(O)cc2)NC(=O)[C@@H](Cc2c(Br)[nH]c3ccccc23)N(C)C(=O)[C@H](C)NC(=O)[C@@H](C)C1", "note": "[Jas]", "values": [{"measurement": "effect of Jas on Lat B-induced facility increase", "setting": "living monkey eye [1]", "result": "did not affect the 200 nM Lat B-induced facility increase; also recorded: did not affect the 60 nM Lat B-induced facility increase"}, {"measurement": "effect on outflow facility", "setting": "living monkey eye [1]", "result": "no significant effect on outflow facility"}, {"measurement": "outflow facility increase, adjusted for baseline and resistance washout in contralateral eyes", "setting": "living monkey eye [1]", "result": "157±57", "unit": "%"}]}, {"compound": "CN[C@@H]1C[C@H]2O[C@@](C)([C@@H]1OC)n1c3ccccc3c3c4c(c5c6ccccc6n2c5c31)C(=O)NC4", "note": "[staurosporine]", "values": [{"measurement": "Facility PRx, Rx/Cont", "setting": "living monkey eye [1]", "result": "1.99 ± 0.43 and 1.03 ± 0.17 and 1.57 ± 0.25"}]}, {"compound": "CC1CNCCN1S(=O)(=O)c1cccc2cnccc12", "note": "(stereo not shown) [H-7, 1-(5-isoquinolinyl-sulfonyl)-2-methylpiperazine]", "values": [{"measurement": "drug-free baseline facility vs first baseline", "setting": "living monkey eye [1]", "result": "significant increase in facility"}, {"measurement": "facility increase, ciliary muscle disinserted vs non-disinserted eyes", "setting": "[2]", "result": "essentially identical proportional increase in outflow facility"}, {"measurement": "effect on pupil size", "setting": "living monkey eye [3]", "result": "did have an effect on pupil size"}, {"measurement": "effect on refraction", "setting": "living monkey eye [3]", "result": "no statistically significant difference in refraction"}, {"measurement": "effect on pilocarpine-induced miosis", "setting": "[4]; H-7 intracameral (~300 μM) or intravitreal (300 μM-1.2 mM)", "result": "inhibits ipsilateral pilocarpine-induced miosis"}, {"measurement": "effect on pupil after phenylephrine", "setting": "[4]; H-7 intracameral or intravitreal", "result": "dilates the ipsilateral pupil even beyond the effect of phenylephrine"}, {"measurement": "selectivity longitudinal vs circular vector", "setting": "ciliary muscle strip", "result": "no selectivity for one vector over the other"}, {"measurement": "time to inhibition of the initial pilocarpine contraction", "setting": "ciliary muscle strip; 10 μM pilocarpine + 300 μM H-7", "result": "≤ 10", "unit": "min"}, {"measurement": "contraction to 10 μM pilocarpine after washout", "setting": "ciliary muscle strip; 90 minute washout after 300 μM H-7", "result": "no contraction in either vector"}, {"measurement": "contraction to 10 μM pilocarpine after washout", "setting": "ciliary muscle strip; 2.5 hours after removal of H-7", "result": "sluggish contraction in both vectors"}, {"measurement": "change in corneal endothelial cell counts", "setting": "corneal endothelium", "result": "did not reveal a statistical change in cell counts"}, {"measurement": "corneal endothelial cell morphology", "setting": "corneal endothelium", "result": "no morphological changes in cells were observed"}]}]}
